Data from patent US20090291857A1, “METHODS TO IDENTIFY INHIBITORS OF THE UNFOLDED PROTEIN RESPONSE” (THE BOARD OF TRUSTEES OF THE LELAND STANFORD JUNIOR …, priority 2006, published 2009).
Where two headings read alike, the source gives them in different places. Values belong to the compound of their own block, whether it stands above or below them.

Columns and labels:
[1] = test system: IRE1α/XBP-1 pathway (XBP1-luciferase reporter); assay: High throughput XBP-luciferase reporter screen, tunicamycin/thapsigargin induced (HTS and IRE IC50); assay type: cell-based, human; conditions: Homo sapiens; for inhibition at 20 µM: Conc 20 uM
Protocol: Specifically, HT1080 fibrosarcoma cells stably transfected with the unspliced XBP-1-luciferase reporter construct (3000/well) were plated onto a solid white 384 well microplate with a multidrop dispenser (40 μL per well). The plates were then placed into an automated incubator. After 24 hours of growth, a mixture of tunicamycin (1 μg/ml) and thapsigargin (100 nM) inducers were added, and candidate compounds were then added to the plates. After 24 hours, luciferase reagent (10 μl) was added to each well and the plates were read in a Molecular Devices Analyst GT (0.2 second read per well).
As described above in Example 2, HT1080 fibrosarcoma cells stably expressing the XBP-luciferase reporter were plated in a 384 well microplate (4000 cells/well). After 24 hours, cells were treated with a mixture of tunicamycin (4 μg/ml) and thapsigargin (0.4 μM), followed by the addition of one compound per well (10 μM). We screened a total of 66,000 diverse molecules obtained from Specs, Chembridge and ChemRX. Twenty-four hours post-induction, BriteGlo luciferase substrate (10 μl) was added to each well and the signal intensity determined in a plate reader (0.2 s read per well). […] We retested 431 compounds from the initial screen, and selected 58 compounds for additional analysis, including calculation of IC50 values and inhibition of a CMV-luciferase reporter.
A. XBP-luciferase reporter construct. Firefly luciferase was inserted downstream of the IRE1α splice site in human XBP-1 to enable the conditional translation of luciferase under ER stress in an IRE1α-dependent manner. B. Selective inhibition of the XBP-luciferase reporter by irestatin 9389. HT1080 human fibrosarcoma cells stably expressing the XBP-luciferase reporter or CMV-luciferase were cultured in the presence of Tm (4 μg/ml) and Tg (0.4 μM) and irestatin 9389 at the indicated concentrations. After 24 hours, luciferase activity was analyzed in an automated plate reader. For each cell line, values are expressed as the percent inhibition of the median for Tm/Tg-treated wells, corrected for background. C. Structure of irestatin 9389. D. XBP-luciferase reporter assay. HT1080 cells stably expressing the XBP-luciferase reporter were exposed to Tm (4 μg/ml) for 24 hours or hypoxia (0.1% oxygen) for 24 or 48 hours, in the presence of DMSO or irestatin 9389 (1 μM) as indicated. Values are expressed as the fold increases over uninduced levels. E. 5X-UPRE reporter assay. HT1080 cells were co-transfected with 5X-UPRE luciferase and SV40-beta-gal reporter plasmids, followed by exposure to Tm or hypoxia as in D. For each condition, luciferase activity is normalized to beta-galactosidase expression levels as an internal control for transfection efficiency. F. Western immunoblot analysis of XBP-1s. HT1080 cells were left untreated (lane 2) or exposed to Tm (4 μg/ml) for 20 hours in the presence of DMSO vehicle (lane 1) or the indicated irestatins (2 μM; lanes 3-6). Cell lysates were resolved by SDS-PAGE and immunoblotting using antisera specific for XBP-1s (top panel) or actin and GAPDH (bottom panel) as loading controls. […] HT1080 cells were treated with DMSO or exposed to irestatin 9389 (2 μM; lane 3) in normoxia (N) or under hypoxia for 24 hours (H 24; lanes 2,3). Cells were harvested, lysed, and analyzed by immunoblotting with antisera specific for HIF-1α (top), XBP-1s (middle) or actin (bottom). H. Northern blot analysis of XBP-1s transcription targets. Cells were exposed to Tm (4 μg/ml) or hypoxia for 24 hours (H 24) in the absence or presence of irestatin 9389 (2 μM). Total RNA was analyzed by Northern blotting using radiolabeled probes specific for P58^IPK or DER-1. Total rRNA is shown as loading control.
As described above, a HT1080 fibrosarcoma cell line stably expressing a fusion of unprocessed XBP-1 inserted upstream of firefly luciferase has been developed to identify small molecule inhibitors of the IRE1α/XBP-1 signaling module. […]

XBP-1 splicing = assay: Bioluminescence imaging of XBP-1 splicing in HT1080 XBP-1s-luciferase tumors in nude mice; assay type: in vivo; conditions: IP, 50 mg/kg
Protocol: Several nude mice were implanted with HT1080 cells stably expressing a XBP-1s-luciferase construct and XBP-1 activation was examined using bioluminescence imaging. Imaging was performed using the In Vivo Imaging System (IVIS, Xenogen Corporation, Alameda, Calif.) in the Stanford Center for Innovation in In Vivo Imaging (SCI3). This device consists of a cooled CCD camera mounted on a light-tight specimen chamber. In these experiments, two different potential irestatins (3281 & 5500) were injected IP into nude mice implanted with HT1080 stably expressing XBP1s-luciferase (described in FIG. 2A).
As shown in FIGS. 9A-D, XBP-1 splicing activity was undetectable 8 hrs after irestatin 3281 injection and became detectable within 16 hrs later.

[2] = 24 h, inhibition of XBP1-luciferase reporter, read-out: Activity Class
[3] = HTS, Conc 10 uM, read-out: % Inh

SMILES: COc1ccccc1NC(=O)CSc1nc2c(c(C(F)(F)F)c1C#N)CCC2 [Compound 4950]
inhibition at 10 µM [1, 2]: < 10%
inhibition at 10 µM [1, 3]: -6.2%

SMILES: Cc1csc(NC(=O)c2sc3nc4c(c(C(F)(F)F)c3c2N)CCC4)n1 [Compound 5500]
inhibition at 10 µM [1, 2]: 75 to 100%
inhibition at 20 µM ([1]; IRE IC50 assay): 100%
effect on XBP-1 splicing at the time points assayed (XBP-1 splicing): did not have any affect on XBP-1 splicing
toxicity (XBP-1 splicing): no apparent toxicity

SMILES: N#Cc1c(C(F)(F)F)cc(-c2cccs2)nc1SCC(=O)Nc1nccs1 [Compound 6451]
inhibition at 10 µM [1, 2]: < 10%
inhibition at 10 µM [1, 3]: -55.6%

IC50 ([1]; IRE IC50 assay, each value a separate calculation, estimate, not accurate below 10 nM, read-out: IC50): 13.9 µM
SMILES: N#Cc1cc2c(nc1SCC(=O)Nc1nccs1)CCC2 [Compound 3371]
inhibition at 20 µM ([1]; IRE IC50 assay): 72.6%

SMILES: N#Cc1c(C(F)(F)F)cc(-c2ccccc2)nc1SCC(=O)Nc1nccs1 [Compound 6392]
inhibition at 10 µM [1, 2]: < 10%
inhibition at 10 µM [1, 3]: 2.7%

SMILES: COCc1cc(C)nc(SCC(=O)Nc2nc(-c3ccccc3)cs2)c1C#N [Compound 9787]
inhibition at 10 µM [1, 2]: < 10%
inhibition at 10 µM [1, 3]: -122%

SMILES: Cc1cc(C(F)(F)F)c(C#N)c(SCC(=O)Nc2nccs2)n1 [Compound 8233]
inhibition at 10 µM [1, 2]: < 10%
inhibition at 10 µM [1, 3]: -59.6%

SMILES: CC(=O)C1=C(C)NC(SCC(=O)Nc2nc3ccccc3s2)=C(C#N)C1c1cccnc1 (stereo not shown) [Compound 2853]
inhibition at 10 µM [1, 2]: 10 to 30%
inhibition at 10 µM [1, 3]: 26.5%

SMILES: COCc1cc(C)nc(SCC(=O)Nc2nc(-c3ccccc3)c(C)s2)c1C#N [Compound 9766]
inhibition at 10 µM [1, 2]: 10 to 30%
inhibition at 10 µM [1, 3]: 26.7%

SMILES: N#Cc1c(C(F)(F)F)cc(-c2cccs2)nc1SCC(=O)Nc1ccc(C(N)=O)cc1 [Compound 9165]
inhibition at 10 µM [1, 2]: < 10%
inhibition at 10 µM [1, 3]: -6.5%

SMILES: COc1ccc(CNC(=O)c2sc3nc4c(c(C(F)(F)F)c3c2N)CCC4)cc1 [Compound 1740]
inhibition at 10 µM [1, 2]: 10 to 30%

SMILES: Nc1c(C(=O)Nc2ccccn2)sc2nc(-c3cccs3)cc(C(F)(F)F)c12 [Compound 1567]
inhibition at 10 µM [1, 2]: < 10%
inhibition at 10 µM [1, 3]: -41.2%

SMILES: Cc1cc(C(F)(F)F)c2c(N)c(C(=O)Nc3cccc(C(F)(F)F)c3)sc2n1 [Compound 3290]
inhibition at 10 µM [1, 2]: < 10%
inhibition at 10 µM [1, 3]: -30.3%

SMILES: CC(=O)N1CCc2nc3sc(C(=O)Nc4cccc(C#N)c4)c(N)c3c(C(F)(F)F)c2C1 [Compound 1491]
inhibition at 10 µM [1, 2]: 10 to 30%

SMILES: COCc1cc(C)nc(SCC(=O)Nc2nc(-c3ccc(C)cc3)cs2)c1C#N [Compound 9668]
inhibition at 10 µM [1, 2]: 10 to 30%
inhibition at 10 µM [1, 3]: 19%

SMILES: CCN(CC)C(=O)CSc1nc2c(c(C(F)(F)F)c1C#N)CCC2 [Compound 8920]
inhibition at 10 µM [1, 2]: 10 to 30%
inhibition at 10 µM [1, 3]: 25.7%

SMILES: COc1ccc(NC(=O)CSc2nc3c(c(C(F)(F)F)c2C#N)CCC3)c(OC)c1 [Compound 9388]
inhibition at 10 µM [1, 2]: < 10%
inhibition at 10 µM [1, 3]: -40.8%

SMILES: Cc1cccc(NC(=O)c2sc3nc(C)cc(C(F)(F)F)c3c2N)n1 [Compound 2750]
inhibition at 10 µM [1, 2]: 10 to 30%
inhibition at 10 µM [1, 3]: 11.7%

SMILES: N#Cc1sc2nc(-c3cccs3)cc(C(F)(F)F)c2c1N [Compound 6068]
inhibition at 10 µM [1, 2]: < 10%
inhibition at 12.3 µM ([1]; HTS, Conc 12.3 uM): 5.8%

SMILES: N#Cc1cccc(NC(=O)c2sc3nc4c(c(C(F)(F)F)c3c2N)CCC4)c1 [Compound 8878]
inhibition at 10 µM [1, 2]: 30 to 75%

SMILES: N#Cc1cc2c(nc1SCC(=O)Nc1nccs1)CCCCC2 [Compound 3398]
inhibition at 10 µM [1, 2]: < 10%
inhibition at 10 µM [1, 3]: -56.2%

SMILES: COCc1cc(C)nc(SCC(=O)Nc2nc(-c3ccc(Br)cc3)cs2)c1C#N [Compound 0040]
inhibition at 10 µM [1, 2]: < 10%
inhibition at 10 µM [1, 3]: -4.6%

SMILES: N#Cc1c(C(F)(F)F)cc(-c2ccncc2)nc1SCC(=O)Nc1nccs1 [Compound 0069]
inhibition at 10 µM [1, 2]: < 10%
inhibition at 10 µM [1, 3]: -5.4%

SMILES: COc1ccc(CNC(=O)c2sc3nc4c(c(C(F)(F)F)c3c2N)CCC4)cc1OC [Compound 2399]
inhibition at 10 µM [1, 2]: 10 to 30%
inhibition at 10 µM [1, 3]: 13.3%

SMILES: Cc1csc(NC(=O)c2sc3nc4c(c(C(F)(F)F)c3c2N)CCCC4)n1 [Compound 4335]
inhibition at 10 µM [1, 2]: 30 to 75%
inhibition at 12 µM ([1]; IRE IC50 assay, Conc 12 uM): 70.4%
inhibition at 20 µM ([1]; IRE IC50 assay): 67.4%

SMILES: N#Cc1c(C(F)(F)F)cc(-c2cccs2)nc1SCC(=O)Nc1ccccn1 [Compound 4645]
inhibition at 10 µM [1, 2]: < 10%
inhibition at 10 µM [1, 3]: -8.3%
